Compound: COc1cc(Nc2c(C#N)cnc3cc(OCCCN4CCN(C)CC4)c(OC)cc23)c(Cl)cc1Cl [Bosutinib] + O=C(CCCCCCC(=O)Nc1ccccc1)NO [Vorinostat] (partner 1 µM)
Test: relative viability (nuclei count vs DMSO), 5 days (fraction); higher = more cells survive
Outline: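 For relative viability, nuclei counts in treated wells were divided by those in vehicle wells. Lung cancer cell lines had been pin-tool dosed in 1536-well plates the day after seeding and cultured for 5 days, then fixed and stained in one step (final 0.05% Triton X-100, 1% formaldehyde, 1 ug/ml Hoechst) and imaged at 4×. Doses were one drug alone or a fixed anchor-drug dose plus five library-drug doses (not always all listed) in √10 steps, and values are duplicate-plate medians.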

Cell Line	relative viability (first compound 0.01 µM)	relative viability (first compound 0.03162 µM)	relative viability (first compound 0.1 µM)	relative viability (first compound 1 µM)
201T	0.941	1.04	1	0.894
A-427	0.87	0.888	0.833	0.846
ABC-1	1.18	1.08	1.32	1.14
BEN	0.557	0.56	0.654	0.514
CAL-12T	0.756	0.773	0.664	0.528
COR-L23	0.535	0.553	0.431	0.561
COR-L 105	0.861	0.844	0.828	0.624
ChaGo-K-1	0.808	0.847	0.792	0.789
EKVX	0.645	0.73	0.747	0.629
EMC-BAC-2	0.427	0.713	0.831	0.396
EPLC-272H	0.601	0.464	0.477	0.321
H3255	–	0.832	0.858	0.768
HARA	0.544	0.654	0.754	0.592
HCC-15	0.759	0.893	0.893	0.772
HCC-44	1.08	1.11	1.06	1.16
HCC-78	0.469	0.362	0.444	0.356
HCC-366	0.433	0.378	0.375	0.286
HCC-827	0.811	0.903	1.04	0.75
HOP-62	0.641	0.687	0.682	0.652
IA-LM	1.06	0.945	0.894	0.947
LC-2-ad	0.735	0.659	0.673	0.71
LCLC-97TM1	0.925	0.763	0.811	0.823
LCLC-103H	0.799	0.858	0.889	0.841
LK-2	0.267	0.278	0.263	0.313

Cell Line	relative viability (first compound 0.01 µM)	relative viability (first compound 0.03162 µM)	relative viability (first compound 0.1 µM)	relative viability (first compound 1 µM)
LOU-NH91	0.903	0.922	0.92	0.819
LU99A	0.51	0.495	0.573	0.483
LXF-289	0.808	0.852	0.792	0.758
NCI-H23	0.779	0.622	0.651	0.619
NCI-H322M	0.751	0.856	0.857	0.54
NCI-H358	0.634	0.697	0.548	0.483
NCI-H441	0.827	0.885	0.936	0.835
NCI-H460	0.719	0.717	0.761	0.775
NCI-H520	0.729	0.735	0.724	0.708
NCI-H522	0.873	0.88	0.892	0.783
NCI-H596	0.685	0.557	0.509	0.573
NCI-H647	0.584	0.568	0.667	0.642
NCI-H650	0.446	0.356	0.483	0.415
NCI-H661	0.784	0.912	0.866	0.829
NCI-H727	1.04	1.27	1.33	0.973
NCI-H838	0.741	0.766	0.755	0.746
NCI-H1355	0.655	0.694	0.708	0.625
NCI-H1395	0.802	0.827	0.862	0.787
NCI-H1437	0.875	0.793	0.842	0.805
NCI-H1650	0.717	0.623	0.529	0.41
NCI-H1651	0.548	0.636	0.646	0.569
NCI-H1666	0.99	0.99	1.12	1.22
NCI-H1734	0.836	0.86	0.855	0.654
NCI-H1755	0.809	0.919	0.904	0.731

Cell Line	relative viability (first compound 0.01 µM)	relative viability (first compound 0.03162 µM)	relative viability (first compound 0.1 µM)	relative viability (first compound 1 µM)
NCI-H1793	0.718	0.75	0.877	0.504
NCI-H1915	0.509	0.531	0.578	0.571
NCI-H1944	0.608	0.577	0.572	0.569
NCI-H1975	0.654	0.684	0.684	0.673
NCI-H1993	0.727	0.733	0.654	0.885
NCI-H2009	0.78	0.809	0.758	0.562
NCI-H2023	0.617	0.661	0.767	0.396
NCI-H2085	0.866	0.769	0.788	0.705
NCI-H2087	0.777	0.5	0.647	0.697
NCI-H2126	0.71	0.799	0.858	0.722
NCI-H2170	0.882	0.832	0.891	0.774
NCI-H2228	0.664	0.442	0.605	0.552
NCI-H2347	0.461	0.579	0.654	0.543
NCI-H2405	1.04	1.33	1.39	0.766
NCI-H3122	0.991	0.917	0.967	0.953
PC-3 [JPC-3]	0.853	0.983	0.918	0.541
PC-14	0.783	0.694	0.673	0.126
RERF-LC-KJ	0.691	0.705	0.733	0.811
SK-LU-1	0.848	0.768	0.844	0.632
SK-MES-1	1.21	1.13	1.12	0.812
SW 900	0.605	0.531	0.671	0.409
SW 1573	0.89	0.843	0.593	0.788
UMC-11	0.354	0.383	0.43	0.364

Reference: the supplement of paper PMC10307832
